This passage reports GI50 and TGI results from PubChem BioAssay (NCI).

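Briefly, cells in 96-well plates were exposed to five compound concentrations for 48 h, and endpoints were estimated by linear interpolation. GI50 is the concentration that inhibits growth by half. At the TGI there is no net growth.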 Where only a bound is given, the exact number is not on record here.

Among the test systems are COLO 205 colon; HT29 colon; K-562 leukemia; NCI-H23 lung; RPMI-8226 leukemia; SNB-19 CNS; SNB-75 CNS; U251 CNS.
Test in all cases: growth of human tumour cells (NCI), 48 h

Consider `Cc1cc2c(cc1Cl)N1C(=O)NS(=O)(=O)N=C1NS2(=O)=O`, for which the GI50 in the assay with COLO 205 colon, in the assay with HT29 colon, with K-562 leukemia, in the assay with NCI-H23 lung, with RPMI-8226 leukemia and in the assay on SNB-19 CNS was more than 100 µM throughout. Moreover, the GI50 in the assay on SNB-75 CNS and with U251 CNS was more than 100 µM in each case. The TGI in the assay on COLO 205 colon, with HT29 colon, in the assay with K-562 leukemia, with NCI-H23 lung, with RPMI-8226 leukemia and with SNB-19 CNS was more than 100 µM in each case. In addition, the TGI in the assay on SNB-75 CNS and in the assay with U251 CNS was more than 100 µM each time.
Regarding `COc1cc(NC(C)CCCN2C(=O)c3ccccc3C2=O)c2ncccc2c1OC` (stereo unspecified), the GI50 with COLO 205 colon is 31.9 µM; with HT29 colon it was 36.3 µM; in the assay on K-562 leukemia, 83.9 µM; with NCI-H23 lung, 26.3 µM; in the assay on SNB-19 CNS, 67.7 µM; in the assay with SNB-75 CNS, 54.4 µM. For the same molecule, the GI50 in the assay on U251 CNS was 46.8 µM. Besides, the TGI with COLO 205 colon, in the assay with HT29 colon, in the assay with K-562 leukemia, with NCI-H23 lung, in the assay on SNB-19 CNS and in the assay with SNB-75 CNS was more than 100 µM each time. The same molecule gave a TGI with U251 CNS of more than 100 µM.
In the case of `Fc1ccc(-c2c(-c3ccncc3)[nH]c3nccnc23)cc1`, the GI50 is 5.86 µM with COLO 205 colon; 6.41 µM in the assay on HT29 colon; more than 25 µM in the assay with K-562 leukemia; more than 17.4 µM in the assay on NCI-H23 lung; more than 25 µM in the assay with RPMI-8226 leukemia; more than 20.3 µM in the assay on SNB-19 CNS. In addition, the GI50 in the assay on SNB-75 CNS was 2.66 µM; with U251 CNS it was 12.5 µM. The TGI in the assay on COLO 205 colon, with HT29 colon, in the assay on K-562 leukemia, in the assay on NCI-H23 lung, in the assay with RPMI-8226 leukemia and with SNB-19 CNS was more than 25 µM throughout. The TGI in the assay on SNB-75 CNS and in the assay on U251 CNS was more than 25 µM in each case.
Turning to `N=C1C(c2nc3ccccc3s2)=C(O)CN1c1cc(Cl)cc(Cl)c1`, the GI50 in the assay on COLO 205 colon, in the assay on HT29 colon, in the assay with K-562 leukemia, in the assay with NCI-H23 lung, in the assay with RPMI-8226 leukemia and with SNB-19 CNS was more than 100 µM throughout. Further, the figures for the GI50 in the assay with SNB-75 CNS and with U251 CNS were 18.7 µM and 32.3 µM, respectively. Besides, the TGI in the assay on COLO 205 colon, in the assay on HT29 colon, with K-562 leukemia, with NCI-H23 lung, in the assay with RPMI-8226 leukemia and with SNB-19 CNS was more than 100 µM each time. For the same molecule, the TGI with SNB-75 CNS is 77.4 µM; in the assay with U251 CNS it was more than 100 µM.
On to `COc1cc(Cn2c(SCC(=O)Nc3ccc(Cl)cc3)nc3ccccc3c2=O)cc(OC)c1OC`, for which the GI50 was 73.2 µM with COLO 205 colon; 16.5 µM in the assay on NCI-H23 lung; 22.9 µM in the assay with RPMI-8226 leukemia; 6.8 µM in the assay with SNB-19 CNS; 1.58 µM with SNB-75 CNS; 3.14 µM with U251 CNS. The TGI in the assay on COLO 205 colon is more than 100 µM; in the assay on NCI-H23 lung, 72.6 µM; in the assay with RPMI-8226 leukemia, more than 100 µM; with SNB-19 CNS, 26 µM; with SNB-75 CNS, 4.89 µM; in the assay on U251 CNS it was 11.1 µM.
Take `COc1ccc(/C=C2/CN(CCC#N)C/C(=C\c3ccc(OC)cc3)C2=O)cc1`: the GI50 with COLO 205 colon was 1.91 µM; with HT29 colon, 1.9 µM; with K-562 leukemia, 3.28 µM; in the assay with NCI-H23 lung, 3.34 µM; in the assay with RPMI-8226 leukemia, 0.401 µM; in the assay on SNB-19 CNS, 4.07 µM. In addition, the GI50 with U251 CNS was 2.1 µM. Besides, the TGI in the assay on COLO 205 colon is 3.5 µM; with HT29 colon, 3.9 µM; in the assay on K-562 leukemia, more than 100 µM; with NCI-H23 lung it was 19.8 µM; in the assay on RPMI-8226 leukemia, 9.02 µM; with SNB-19 CNS, more than 100 µM. Besides, in the assay on U251 CNS, the TGI worked out at 5.1 µM.
Regarding `N[C@@H](CSSC[C@H](N)C(=O)N1CCn2cc(-c3ccccc3)nc2[C@@H]1CC1CCCCC1)C(=O)N1CCn2cc(-c3ccccc3)nc2[C@@H]1CC1CCCCC1`, the GI50 is 1.79 µM in the assay on COLO 205 colon; 1.63 µM in the assay with HT29 colon; 1.48 µM with K-562 leukemia; 1.41 µM with NCI-H23 lung; 2.35 µM with RPMI-8226 leukemia; 1.36 µM with SNB-19 CNS. The GI50 with SNB-75 CNS was 1.79 µM; in the assay on U251 CNS, 1.37 µM. Besides, the TGI in the assay on COLO 205 colon is 3.27 µM; in the assay on HT29 colon, 3.42 µM; with K-562 leukemia, more than 100 µM; in the assay on NCI-H23 lung, 3.14 µM; in the assay on RPMI-8226 leukemia, 5.68 µM; in the assay with SNB-19 CNS it was 2.85 µM. Besides, the TGI is 3.3 µM in the assay on SNB-75 CNS and 2.76 µM in the assay on U251 CNS.
Consider `CC1COCCN1CC#CCOC(=O)c1cc2ccccc2oc1=O` (stereo unspecified), for which the GI50 in the assay with COLO 205 colon, in the assay with HT29 colon, with K-562 leukemia, with NCI-H23 lung, with RPMI-8226 leukemia and in the assay on SNB-19 CNS was more than 100 µM throughout. Also, the figures for the GI50 with SNB-75 CNS and in the assay on U251 CNS were 83.4 µM and more than 100 µM, respectively. Also, the TGI with COLO 205 colon, in the assay on HT29 colon, in the assay with K-562 leukemia, in the assay with NCI-H23 lung, in the assay on RPMI-8226 leukemia and with SNB-19 CNS was more than 100 µM in each case. The TGI in the assay on SNB-75 CNS and in the assay on U251 CNS was more than 100 µM each time.
As for `N=C1/C(=C2\Nc3ccccc3S2)CC(=O)N1c1ccc(SC(F)F)cc1`, the GI50 in the assay on COLO 205 colon was 11.2 µM; in the assay on HT29 colon, 1.99 µM; in the assay with K-562 leukemia, 1.65 µM; in the assay on NCI-H23 lung it was 18.7 µM; with RPMI-8226 leukemia, 0.626 µM; with SNB-19 CNS, 29.1 µM. The GI50 is 0.17 µM with SNB-75 CNS and 2.74 µM in the assay on U251 CNS. Moreover, the TGI in the assay with COLO 205 colon was more than 100 µM; with HT29 colon, more than 100 µM; in the assay with K-562 leukemia it was more than 100 µM; in the assay on NCI-H23 lung it was more than 100 µM; with RPMI-8226 leukemia it was 66 µM; with SNB-19 CNS it was more than 100 µM. Further, the figures for the TGI in the assay on SNB-75 CNS and with U251 CNS were 1.15 µM and 29.7 µM, respectively.
